Substitutions are numbered along the chain they refer to.
Tests used:
[1] = target: T1, HpHtrA S166A (Helicobacter pylori, UniProt G2J5T2, S166A); conditions: MST
T1 sequence (G2J5T2 18-475 S166A): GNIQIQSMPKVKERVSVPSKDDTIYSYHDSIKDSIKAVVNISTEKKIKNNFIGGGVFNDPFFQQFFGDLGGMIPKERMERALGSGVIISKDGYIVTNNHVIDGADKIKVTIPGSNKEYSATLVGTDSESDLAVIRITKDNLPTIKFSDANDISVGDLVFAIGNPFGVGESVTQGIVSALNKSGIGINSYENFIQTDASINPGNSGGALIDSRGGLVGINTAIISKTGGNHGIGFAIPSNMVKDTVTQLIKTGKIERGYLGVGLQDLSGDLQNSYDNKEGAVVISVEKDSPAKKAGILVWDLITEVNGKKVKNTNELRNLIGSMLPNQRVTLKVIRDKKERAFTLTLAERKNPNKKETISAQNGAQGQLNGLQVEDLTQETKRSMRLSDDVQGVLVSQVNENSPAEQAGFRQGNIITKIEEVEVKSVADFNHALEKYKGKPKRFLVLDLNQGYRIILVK
Method: (§1) Synthesis of 2-Abz-AQRVAFY(3-NO2)-NH2. The peptide was assembled manually on a 20 µmol scale.
(§2) The side-chain protecting groups were Pbf for Arg, and Trt for Gln. Fmoc deprotection was carried out with 25% piperidine in DMF/NMP (80:20, v/v) for 3 min, and 12.5% piperidine in DMF/NMP (80:20, v/v) for 12 min. The double couplings (2x45 min) were accomplished with the mixture Fmoc-AA-OH/HOBt/HBTU/DIPEA (5:5:4.8:10 equiv.). 2 -Boc-Abz-OH was coupled with the same protocol.
(§3) Afterwards, the peptidyl-resin was treated with 25% piperidine in DMF/NMP (80:20, v/v) (2x12 min) to deacylate the 3-nitro-tyrosine side chain. The peptide was simultaneously cleaved from the resin and deprotected by using the mixture TFA/H2O/TIA/EDT/TIS (90:3:1:3:3; Vtot = 1 ml) for about 3 h, precipitated from ice-cold diethyl ether, recovered by centrifugation at 4 °C for 6 min, washed four times with ice-cold diethyl ether, and dried in vacuo. The solid was dissolved in water and lyophilized.
(§4) Microscale thermophoresis .
(§5) D168A, MicroScale Thermophoresis (MST) analysis was performed using the Monolith NT.115 (NanoTemper Technologies). HpHtrA proteases were labeled with red fluorescent dye NT -650-NHS (amine reactive) according to the manufacturer’s protocol. Remaining free dye was removed by buffer exchange column chromatography and proteins were eluted in 50 mM Tris pH 7.4, 150 mM NaCl, 0.04% Tween. 5 nM of labelled HpHtrA was incubated for 15 minutes at RT with decreasing […]
(§6) Measurement was performed with premium treated capillaries (NanoTemper Technologies) and the Monolith NT.115 Microscale Thermophoresis device. Data analysis was performed with MO.Affinity Analysis v2.3 (NanoTemper Technologies) and GraphPad Prism Software (Version 8.0.2). Three independent experiments were […]

[2] = target: T2, HpHtrA D165A (Helicobacter pylori, UniProt G2J5T2, D165A); conditions: MST
T2 sequence (G2J5T2 18-475 D165A): T1 sequence (G2J5T2 18-475 S166A) with D148A, A149S
Method: as §1, §2, §3, §4, §5, §6

[3] = target: T3, HpHtrA D168A (Helicobacter pylori, UniProt G2J5T2, D168A); conditions: MST
T3 sequence (G2J5T2 18-475 D168A): T1 sequence (G2J5T2 18-475 S166A) with A149S, D151A
Method: as §1, §2, §3, §4, §5, §6

[4] = target: T4, HpHtrA wt (Helicobacter pylori, UniProt G2J5T2); assay: biochemical
T4 sequence (G2J5T2 18-475): T1 sequence (G2J5T2 18-475 S166A) with A149S
Method: as §1, §2, §3, §4, §5, §6

[Zn+2] [Zn^++, ZnCl2]
Response amplitude [1]: 3.9
Response amplitude [2]: 3.6
Response amplitude [3]: 2.7
Kd [4]: 23 ± 12 µM
Response amplitude ([4]; MST, 5 nM labelled HpHtrA wt, ZnCl2 1 mM - 30.5 nM): 4.3
S/N (signal to noise ratio) ([4]; MST, HpHtrA wt): 6.3

Source: publication PMC7324608 (Scientific Reports, 2020)
